This note sets out measurements from patent publication EP4647428A1, “COMPOUND CONTAINING 2-METHYL-2-(3-(PIPERIDIN-3-YL)PHENOXY)-2-METHYLPROPANAMIDE SKELETON” (Jiangsu Mingsheng Jutai Biotechnology Co. Ltd, priority 2023, dated 2024).

Assay [1] concerns SW480. In words: CCK8 cell inhibition test on SW480 cells. It is filed as cell-based. Conditions: Homo sapiens; CCK-8, SW480 cells, 24 hours incubation at 37°C, compound 20 µM to 0.15625 µM in DMEM (2% FBS). The procedure:
Cells were digested, counted, and plated in a 96-well plate (flat-bottomed, transparent) with 10,000 cells/100 µl DMEM (10% FBS) per well . • 2. Observe the cell status on the next day and start adding drugs after the cells have fully adhered to the wall; • 3. Dilute the compound in DMEM (2% FBS) in a serial dilution format to concentrations of 20 µM, 10 µM, 5 µM, 2.5 µM, 1.25 µM, 0.625 µM, 0.3125 µM, 0.15625 µM, and 0 µM (with equal volume of DMSO). • 4. Add 100 µl of the above compounds at different concentrations to each well. Repeat for each concentration gradient in duplicate. Leave three blank wells (add only DMEM 2% FBS culture medium without cells) . • 5. Incubate at 37°C for 24 hours . • 6. Add 10 µl of CCK-8 Enhanced Solution to each well. Since the amount of CCK-8 added to each well is relatively small, there may be errors due to the reagent sticking to the well wall. It is recommended to gently tap the culture plate after adding the reagent to help mix it. • 7. Incubate in the incubator for 0.5-4 hours: The amount of formazan formed varies depending on the cell type. In most cases, incubation for 1 hour is sufficient. If color development is insufficient, continue incubation to confirm optimal conditions. • 8. Measure the absorbance at 450nm and 600nm (excluding interference from the reagent background color and the absorbance of the well plate itself); • 9. The final absorbance value is OD450nm-OD600nm, and the inhibition rate is calculated; Inhibition rate = [(Ac−As)/(Ac−Ab)] × 100% [formula] • As: absorbance of the experimental well (culture medium containing cells, CCK-8, and drug to be tested); • Ac: absorbance of control wells (culture medium containing cells, CCK-8, and no test drug); • Ab: absorbance of blank wells (culture medium without cells, test drugs, or CCK-8).

The target in assay [2] is T1, β-catenin (Homo sapiens, UniProt P35222).
T1 sequence (P35222 1-781): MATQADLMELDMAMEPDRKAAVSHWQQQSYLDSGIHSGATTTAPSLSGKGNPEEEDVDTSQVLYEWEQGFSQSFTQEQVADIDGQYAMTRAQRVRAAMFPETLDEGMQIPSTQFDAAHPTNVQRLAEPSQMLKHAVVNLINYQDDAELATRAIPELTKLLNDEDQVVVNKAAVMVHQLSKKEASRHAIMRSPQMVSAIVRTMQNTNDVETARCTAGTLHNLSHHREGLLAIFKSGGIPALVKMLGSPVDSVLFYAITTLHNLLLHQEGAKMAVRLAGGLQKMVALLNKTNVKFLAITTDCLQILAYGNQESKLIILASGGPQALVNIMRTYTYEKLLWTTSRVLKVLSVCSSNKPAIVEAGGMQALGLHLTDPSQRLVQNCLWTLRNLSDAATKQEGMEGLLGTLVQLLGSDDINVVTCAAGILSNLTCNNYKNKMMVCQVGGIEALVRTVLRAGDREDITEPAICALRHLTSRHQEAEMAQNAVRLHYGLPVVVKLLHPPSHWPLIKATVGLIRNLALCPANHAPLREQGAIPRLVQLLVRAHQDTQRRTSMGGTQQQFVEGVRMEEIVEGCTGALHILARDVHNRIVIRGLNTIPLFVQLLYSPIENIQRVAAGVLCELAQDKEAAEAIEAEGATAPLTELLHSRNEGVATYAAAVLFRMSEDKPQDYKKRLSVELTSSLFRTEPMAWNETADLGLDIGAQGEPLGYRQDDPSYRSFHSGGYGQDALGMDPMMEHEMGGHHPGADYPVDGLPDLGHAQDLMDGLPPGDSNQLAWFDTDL
In words: SRP test (Biacore T200, affinity fitting KD to coupled ligand β-catenin). Format: binding. Conditions: Biacore T200, CM5 chip, 25°C, HEPES pH 7.4. The procedure:
• 1. The analyte is in powder form. • 2. The temperature is 25°C. • 3. The analytical equipment used was Biacore T200 instrument.
• 1. Ligand β-catenin was diluted with HEPES (pH 7.4) to 0.5 mg/mL • 2. The analyte was dissolved in DMSO and diluted with 0.1% DMSO HEPES (pH 7.4)
3. Experimental Procedure
• 1. Start the Biacore T200 instrument according to standard operating procedures. • 2. Prepare 500 ml of HEPES buffer (pH 7.4) and deionized water (filtered through a 0.22 µm membrane) for rinsing the injection needle. • 3. Start installing the chip and install the CM5 chip according to the standard process. • 4. Prepare to start the formal experiment. The buffer solution will flush the flow system inside the entire system at a high flow rate. • 5. Choose the appropriate procedure based on the sample size. • 6. Start the capture chip. Prepare a sufficient volume of ligand β-catenin, EDC/NHS, and blocking buffer. Initiate the coupling procedure with a 7-minute coupling time and a flow rate of 10 µl/min. The final ligand coupling volume is approximately 16,000 RU. • 7. After the coupling is completed, start the sample detection and set the analyte binding time to 120 s. • The flow rate was 30 µL/min; the dissociation time was 200 s, the flow rate was 30 µL/min; the regeneration time was 30 s, • The flow rate was 30 µL/min. • 8. […]

As for `CC(C)c1ccc(-c2cccc(S(=O)(=O)N3CCCC(c4cccc(OC(C)(C)C(=O)NCC(=O)N5CCC[C@H]5CN)c4)C3)c2)cc1` (stereo partly shown) [Compound 115-010], the IC50 in assay [1] came to 3560 nM. In assay [2], this molecule yielded a Kd of 284 nM.
In assay [1], `CC(C)c1ccc(-c2cccc(S(=O)(=O)N3CCCC(c4cccc(OC(C)(C)C(=O)NCC(=O)N5CC[C@@H](CN)C5)c4)C3)c2)cc1` (stereo partly shown) [Compound 115-012] had a half-maximal inhibitory concentration (IC50) of less than 2970 nM. In assay [2], this molecule registered a Kd of 760 nM.
